Experimental data published in PMC5471521, “Novel selective β1-adrenoceptor antagonists for concomitant cardiovascular and respiratory disease” (The FASEB Journal, 2017).
Like-named read-outs stand apart in the source and are kept apart here.

Columns and labels:
[1] = target: T1, human β2-AR (Homo sapiens, UniProt P07550); assay: 3H-CGP12177 whole-cell binding in CHO-β2 cells; conditions: mean ± SEM, cells marked ^a are apparent log Kd (specific binding not fully inhibited)
T1 construct: expressed in transfected cells

[2] = test system: HR (β1) and HQC (β2) in conscious rats; assay: In vivo β1- vs. β2-selectivity, intravenous β-blocker, conscious rats (isoprenaline responses); set-up: species or system rat; conditions: i.v. 2 mg/kg bolus + 1 mg/kg/h infusion, n = 4
Protocol: Adult male Sprague-Dawley rats, weighing 300−400 g, were chronically instrumented with pulsed Doppler flow probes and intravascular catheters for cardiovascular monitoring and drug administration in a 2-stage surgical protocol as described ([51]). Surgery was performed under general anesthesia (fentanyl and medetomidine, 300 μg/kg of each, i.p.), with reversal and postoperative analgesia provided by atipamezole (1 mg/kg, s.c.) and buprenorphine (0.02 mg/kg, s.c.). Experiments were performed with animals that were fully conscious and unrestrained in home cages and given free access to food and water. Cardiovascular variables were recorded by using a customized, computer-based system (Instrument Development Engineering Evaluation, Maastrich Instruments Bv, Maastrich, The Netherlands) with raw data sampled every 2 ms. Hindquarters vascular conductance (HQC) was calculated as Doppler shift (flow)/mean arterial pressure.
Isoprenaline infusions were repeated during the final 60 min of β-blocker infusion and 3–4 and 23–24 h after β-blocker infusions finished.
Isoprenaline responses shown are absolute values for HR and HQC before the first dose of isoprenaline (baseline) and during the third minute of infusion of each dose. Values at baseline and during the highest isoprenaline dose were tested for statistical significance by using a nonparametric ANOVA test with correction for repeat measures [Quade test ([52])]. A value of P < 0.05 was taken as significant.

[3] = target: T2, human β1-AR (Homo sapiens, UniProt P08588); assay: Antagonism of cimaterol-induced 3H-cAMP accumulation in CHO-β1 cells; assay type: cell-based; conditions: for Schild slope: CHO-β1 cells, 3 antagonist concentrations, 1 = competitive antagonism; for Kd: Gaddum equation, cimaterol agonist, mean ± SEM, read-out: Log Kd,β1 (converted); for SI1b (in vitro inhibition of functional response) = Kd,β2/Kd,β1: Kd values from antagonism of cimaterol-induced 3H-cAMP accumulation, Table 2; for β1 vs. β2 selectivity Kd,β2/Kd,β1: from antagonism of cimaterol-induced 3H-cAMP accumulation
T2 construct: expressed in transfected cells
Protocol: (§1) Confluent cells were examined (24-well plates, 5 h incubation at 37°C) as described in Baker ([45]). Antagonist Kd values were calculated from a rightward shift of the agonist concentration response curve by using the Gaddum equation as previously described ([46]).

[4] = Aqueous solubility by nephelometry; assay type: physicochemical; conditions: kinetic from dmso stock
Protocol: NDD-713.HCl and -825.HCl were added to either aqueous phosphate buffer (pH 6.5) or 0.01 M aqueous HCl (pH ∼2) at final DMSO concentrations of 1%. Samples were analyzed by nephelometry to determine solubility ranges ([48]). Studies were carried out by the Centre for Drug Candidate Optimisation (CDCO; Monash University, Melbourne, VIC, Australia).

[5] = target: hERG channels (Homo sapiens, UniProt Q12809); assay: hERG automated patch-clamp electrophysiology
Protocol: In addition, the potential of the compound to inhibit hERG channels was tested by using an automated patch-clamp electrophysiological assay (BioFocus, Cambridge, United Kingdom; using the Precision hERG-HEK recombinant cell line from on an Ion Works Quattro automated electrophysiology platform; Millipore, Billerica, MA, USA).

[6] = Metabolic stability, human liver microsomes; assay type: in vitro ADME; conditions: in the presence of NAD+, NADPH, or in the absence of cofactors
Protocol: NDD-713.HCl and -825.HCl were incubated (0.02, 0.1, or 0.5 μM at 37°C, 120 min) with human (XenoTech, Kansas City, KS, USA) or rat liver microsomes (BD Biosciences, Brea, CA, USA) at 0.4 mg/ml protein concentration. Metabolic reaction was initiated by addition of NADPH-regenerating system or NADPH-regenerating system with uridine diphosphate glucuronic acid. Samples were quenched at time points by acetonitrile addition. Control samples, which contained neither NADPH, nor uridine diphosphate glucuronic acid, were monitored for degradation. Compound concentrations were determined by ultraperformance LC-MS (UPLC-MS) relative to calibration standards that were prepared in quenched liver microsomes and fitted to exponential decay functions to determine first-order rate constants (k) for substrate depletion. These were used to calculate in vitro intrinsic clearance (CLint) values: CLint = k/microsomal protein content (0.4 mg protein/ml). Metabolic stability assays that used rat liver cytosol (BD Biosciences), human cryopreserved hepatocytes, or rat hepatocytes were carried out similarly. Average viable cell concentrations were determined by Trypan Blue exclusion methods (in the absence of test compounds). Studies were carried out by CDCO.

[7] = target: human albumin (Homo sapiens, UniProt P02768); assay: Plasma protein binding estimated from retention on human albumin columns; assay type: in vitro ADME; conditions: human albumin chromatography column, chromatographic estimate, read-out: Plasma protein binding PPB (converted)
[8] = test system: Salmonella typhimurium strains TA98, TA100, TA1535, and TA1537; conditions: concentrations of ≤10 μM, with or without rat liver S9
Protocol: Ames fluctuation assays were performed by using Salmonella typhimurium strains TA98, TA100, TA1535, and TA1537 to detect frame-shifts and base substitutions that led to missense mutations in liquid culture in 384-well plates. Bacterial plates were incubated with serially diluted NDD-713 and -825 solutions for 96 h, and bacterial growth was measured spectrophotometrically by using a pH color-change indicator in response to bacterial growth acidification. Assays were conducted with or without metabolic activation via addition of rat liver S9 fraction. Bacteriocidal or bacteriostatic effects were assessed by using a bacterial cytotoxicity assay that was conducted in parallel with Ames fluctuation assays. Reference compounds were 2-aminoanthracene, 9-aminoacridine, quercetin, streptozotocin (genotoxicity), and mitomycin C (bacterial cytotoxicity). Study was carried out by Cerep (Celle L’Evescault, France).

[9] = target: T3, rat β2-AR (Rattus norvegicus, UniProt P10608); assay: 3H-CGP12177 whole-cell binding in transiently transfected CHO cells; conditions: transiently transfected CHO cells, mean ± SEM; cells marked ^a are apparent log Kd; read-out: Rat β2-AR Log Kd (converted)
T3 construct: host or cells: CHO cells, transient transfection
Protocol: (§2) Human bronchial smooth muscle cells were obtained from Lonza (Basel, Switzerland) and grown in manufacturer media. Rat β-AR binding experiments (DNA from cDNA Resource Centre, Bloomsburg, PA, USA) were conducted by using transiently transfected CHO cells ([44]).
(§3) Propranolol (10 μM) defined nonspecific binding. Kd values were derived from IC50 values by using the Cheng-Prusoff equation as previously described ([11]).

[10] = target: T4, rat β1-AR (Rattus norvegicus, UniProt P18090); assay: as above; conditions: for Rat β1 vs. β2 selectivity Kd,ratβ2/Kd,ratβ1: from 3H-CGP12177 whole-cell binding; for Kd: transiently transfected CHO cells, mean ± SEM, read-out: Rat β1-AR Log Kd (converted)
T4 construct: host or cells: CHO cells, transient transfection
Protocol: as §2, §3

[11] = target: T1, human β2-AR; assay: Antagonism of cimaterol-induced 3H-cAMP accumulation in CHO-β2 cells; assay type: cell-based; conditions: cimaterol agonist, mean ± SEM, read-out: Log Kd,β2 (converted)
Protocol: as §1

[12] = 0.01 M aqueous HCl, simulated gastric fluid, pH 2.0, hydrochloride salts used, read-out: Aqueous solubility Saq at pH 2.0
[13] = aqueous phosphate buffer, aqueous buffer, pH 6.5, hydrochloride salts used, read-out: Aqueous solubility Saq at pH 6.5

T4 sequence (P18090 whole entry): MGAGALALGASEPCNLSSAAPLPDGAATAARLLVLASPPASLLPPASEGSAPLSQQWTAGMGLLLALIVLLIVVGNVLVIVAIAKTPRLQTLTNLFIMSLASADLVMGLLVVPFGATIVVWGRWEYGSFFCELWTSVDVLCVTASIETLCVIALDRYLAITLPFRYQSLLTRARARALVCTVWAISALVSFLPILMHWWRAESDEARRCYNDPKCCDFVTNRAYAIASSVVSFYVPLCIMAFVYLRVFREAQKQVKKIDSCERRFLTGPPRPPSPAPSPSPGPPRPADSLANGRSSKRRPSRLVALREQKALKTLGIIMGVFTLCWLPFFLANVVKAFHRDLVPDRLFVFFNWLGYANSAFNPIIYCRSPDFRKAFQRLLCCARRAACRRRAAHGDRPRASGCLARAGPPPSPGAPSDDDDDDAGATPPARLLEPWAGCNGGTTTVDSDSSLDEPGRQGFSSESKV
T2 sequence (P08588 whole entry): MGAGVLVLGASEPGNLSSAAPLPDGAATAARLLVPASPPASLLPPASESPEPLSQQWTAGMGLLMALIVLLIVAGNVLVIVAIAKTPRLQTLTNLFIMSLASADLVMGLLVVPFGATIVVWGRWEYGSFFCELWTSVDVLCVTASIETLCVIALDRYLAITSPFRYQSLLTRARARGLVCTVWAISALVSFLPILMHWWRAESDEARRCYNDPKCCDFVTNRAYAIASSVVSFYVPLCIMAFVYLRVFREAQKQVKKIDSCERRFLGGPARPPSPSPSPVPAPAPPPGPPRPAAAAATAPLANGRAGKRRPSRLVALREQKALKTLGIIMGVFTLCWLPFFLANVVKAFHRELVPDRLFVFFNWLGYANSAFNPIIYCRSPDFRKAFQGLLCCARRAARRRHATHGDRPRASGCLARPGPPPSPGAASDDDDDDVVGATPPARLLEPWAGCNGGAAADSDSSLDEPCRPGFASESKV
T1 sequence (P07550 whole entry): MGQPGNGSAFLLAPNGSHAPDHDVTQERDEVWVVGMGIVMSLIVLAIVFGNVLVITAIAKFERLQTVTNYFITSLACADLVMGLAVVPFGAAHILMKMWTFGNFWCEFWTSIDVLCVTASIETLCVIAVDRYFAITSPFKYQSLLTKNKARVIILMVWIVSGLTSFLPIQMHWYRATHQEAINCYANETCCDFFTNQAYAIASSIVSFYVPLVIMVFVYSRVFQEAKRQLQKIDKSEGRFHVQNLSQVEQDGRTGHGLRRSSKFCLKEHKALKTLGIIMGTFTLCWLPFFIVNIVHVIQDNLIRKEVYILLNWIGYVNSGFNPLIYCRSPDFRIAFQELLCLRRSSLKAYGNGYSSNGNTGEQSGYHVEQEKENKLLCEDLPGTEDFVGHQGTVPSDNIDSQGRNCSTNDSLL
T3 sequence (P10608 whole entry): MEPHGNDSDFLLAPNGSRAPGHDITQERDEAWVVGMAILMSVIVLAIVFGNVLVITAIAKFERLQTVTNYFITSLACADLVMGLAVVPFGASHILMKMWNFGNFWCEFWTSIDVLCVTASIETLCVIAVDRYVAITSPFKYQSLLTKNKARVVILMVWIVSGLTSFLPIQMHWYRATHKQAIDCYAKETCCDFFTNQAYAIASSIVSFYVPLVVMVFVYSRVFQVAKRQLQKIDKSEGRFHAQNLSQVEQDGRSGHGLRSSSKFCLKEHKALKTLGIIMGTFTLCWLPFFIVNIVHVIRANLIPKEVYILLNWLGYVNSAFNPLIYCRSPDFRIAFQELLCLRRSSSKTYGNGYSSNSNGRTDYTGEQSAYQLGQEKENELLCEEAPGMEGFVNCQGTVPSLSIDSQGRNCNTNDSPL
Chain of hERG channels (Q12809 whole entry): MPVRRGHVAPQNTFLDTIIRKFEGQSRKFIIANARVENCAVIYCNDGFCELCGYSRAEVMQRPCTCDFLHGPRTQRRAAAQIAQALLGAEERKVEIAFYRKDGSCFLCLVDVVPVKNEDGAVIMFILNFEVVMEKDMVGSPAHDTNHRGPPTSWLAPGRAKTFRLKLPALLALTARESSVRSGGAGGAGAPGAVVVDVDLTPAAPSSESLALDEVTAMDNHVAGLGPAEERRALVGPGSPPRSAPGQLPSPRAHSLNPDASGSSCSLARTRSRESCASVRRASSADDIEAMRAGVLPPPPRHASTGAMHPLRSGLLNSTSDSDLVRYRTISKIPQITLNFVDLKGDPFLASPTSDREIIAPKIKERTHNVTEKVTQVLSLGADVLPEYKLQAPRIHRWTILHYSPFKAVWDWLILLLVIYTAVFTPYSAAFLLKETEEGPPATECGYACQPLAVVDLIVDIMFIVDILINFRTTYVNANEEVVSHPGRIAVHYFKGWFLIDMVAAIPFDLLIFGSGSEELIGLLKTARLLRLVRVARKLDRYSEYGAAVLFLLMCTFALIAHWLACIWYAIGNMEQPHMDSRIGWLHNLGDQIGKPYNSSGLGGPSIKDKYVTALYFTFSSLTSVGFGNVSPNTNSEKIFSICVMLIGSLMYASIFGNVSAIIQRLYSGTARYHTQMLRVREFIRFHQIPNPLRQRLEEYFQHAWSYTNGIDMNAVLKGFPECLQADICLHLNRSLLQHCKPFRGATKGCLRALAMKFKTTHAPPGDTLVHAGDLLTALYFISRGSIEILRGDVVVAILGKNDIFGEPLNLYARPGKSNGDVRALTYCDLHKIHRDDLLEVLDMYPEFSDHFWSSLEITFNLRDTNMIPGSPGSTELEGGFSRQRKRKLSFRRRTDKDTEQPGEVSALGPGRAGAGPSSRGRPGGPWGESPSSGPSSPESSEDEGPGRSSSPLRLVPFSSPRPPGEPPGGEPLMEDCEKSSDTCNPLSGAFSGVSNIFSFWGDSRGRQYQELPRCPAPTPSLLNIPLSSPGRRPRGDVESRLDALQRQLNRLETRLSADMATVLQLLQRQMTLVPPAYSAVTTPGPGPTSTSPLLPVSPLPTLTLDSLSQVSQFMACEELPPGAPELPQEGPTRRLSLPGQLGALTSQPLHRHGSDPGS
Chain of human albumin (P02768 25-609): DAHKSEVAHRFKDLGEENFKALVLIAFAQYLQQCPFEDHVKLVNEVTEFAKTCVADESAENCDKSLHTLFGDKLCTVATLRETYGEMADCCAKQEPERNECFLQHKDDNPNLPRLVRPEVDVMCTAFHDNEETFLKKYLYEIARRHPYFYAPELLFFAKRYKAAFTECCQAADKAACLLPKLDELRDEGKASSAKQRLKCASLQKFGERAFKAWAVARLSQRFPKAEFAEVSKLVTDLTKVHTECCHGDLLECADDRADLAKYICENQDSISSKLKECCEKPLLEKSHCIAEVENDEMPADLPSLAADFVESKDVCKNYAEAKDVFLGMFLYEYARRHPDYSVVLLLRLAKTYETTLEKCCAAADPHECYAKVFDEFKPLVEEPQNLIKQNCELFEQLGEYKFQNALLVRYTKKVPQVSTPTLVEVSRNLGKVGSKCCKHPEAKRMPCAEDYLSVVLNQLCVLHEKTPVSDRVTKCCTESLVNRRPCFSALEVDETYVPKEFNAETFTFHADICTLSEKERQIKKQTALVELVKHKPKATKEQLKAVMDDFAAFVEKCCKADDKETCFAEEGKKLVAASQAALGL

SMILES | Kd [1] [µM] | Effect on basal and isoprenaline-stimulated HR (β1) [2] | Effect on isoprenaline HQC response (β2) [2] | Schild slope [3] | Kd [3] [µM] | SI1b (in vitro inhibition of functional response) = Kd,β2/Kd,β1 [3] | β1 vs. β2 selectivity Kd,β2/Kd,β1 [3] | solubility [4, 12] [µg/mL] | solubility [4, 13] [µg/mL] | IC50 [5] [µM] | microsomal CLint [6] [µL/min/mg] | fraction unbound [7] | Genotoxicity in Ames tests [8] | Kd [9] [µM] | Rat β1 vs. β2 selectivity Kd,ratβ2/Kd,ratβ1 [10] | Kd [10] [µM] | Kd [11] [µM]
NC(=O)c1ccc(OCCNC[C@H](O)COc2ccc3c(c2)OC[C@@H](COCC2CC2)O3)cc1 [NDD-713] | 8.91 | suppressed basal and isoprenaline-induced HR | no effect on HQC responses | 1.06 ± 0.03 | 0.00302 | 1202 | 1202 | > 100 | 25 to 50 | > 10 | < 0.16 | 0.365 | Neither compound displayed genotoxicity | 18.6 | 2188 | 0.00851 | 3.63
O=C1NCc2cc(OCCNC[C@H](O)COc3ccc4c(c3)OC[C@@H](COCC3CC3)O4)ccc21 [NDD-825] | 5.37 | suppressed basal and isoprenaline-induced HR | no effect on HQC responses | 1.04 ± 0.02 | 0.00102 | 1738 | 1738 | > 100 | 50 to 100 | > 10 | < 0.16 | 0.265 | Neither compound displayed genotoxicity | 13.2 | 3090 | 0.00427 | 1.78
